Results on 5 compounds are retold here after ChEMBL document CHEMBL1201862, “PubChem BioAssay data set” (2004).

Test systems include CCRF-CEM; RXF 393; KM12; SF-268; K562; A498; SK-OV-3; SK-MEL-5; LXFL 529; TK-10; NCI-H460; RPMI-8226; SW-620; MOLT-4; SK-MEL-2; Hs-578T; MCF7; DU-145; PC-3; MDA-N.
What all share (assay): NCI anticancer screen, dose series, 48 h

Structures are written as SMILES.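 Dose response: 5 concentrations. Exposure: 48 h. Format: 96-well plates. Endpoint: linear interpolation; highest concentration if not reached. GI50 is the concentration that inhibits growth by half.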 Activity calls are given as the source filed them. Rule as the data show it: active = GI50 up to about 1.1 µM and inactive = higher. Bounds are passed on as bounds.

Take `CCOC(=O)/C=C1\CCCC12OCCO2`: the GI50 with CCRF-CEM, with RXF 393, in the test with KM12, in the test with SF-268, in the test with K562 and in the test with A498 was > 100 µM (inactive) in each case. Besides, the GI50 in the test on SK-OV-3 was > 100 µM (inactive); in the test on SK-MEL-5 it was > 100 µM (inactive); in the test on LXFL 529, > 100 µM (inactive); in the test with TK-10 it was > 100 µM (inactive); in the test with NCI-H460 it was > 100 µM (inactive); with RPMI-8226, 49.7 µM (inactive). Also, the results for the GI50 in the test with SW-620, in the test on MOLT-4 and with SK-MEL-2 were > 100 µM (inactive), 30.5 µM (inactive) and > 100 µM (inactive), respectively.

Take `COc1cc(/C=C2/C(=O)N(C(=O)OCC(C)C)C(Cc3cc(OC)c(OC)c(C)c3OC)C(=O)N2Cc2ccccc2)c(OC)c(C)c1OC` (stereo unspecified): the GI50 in the test with CCRF-CEM was 21.3 µM (inactive); in the test on RXF 393 it was > 100 µM (inactive); in the test with KM12, > 100 µM (inactive); in the test on SF-268, > 100 µM (inactive); in the test with K562, 19.2 µM (inactive); in the test on A498 it was > 100 µM (inactive). In addition, the GI50 in the test with SK-OV-3 is > 100 µM (inactive); in the test on SK-MEL-5, 74.6 µM (inactive); in the test on LXFL 529, 5.57 µM (inactive); in the test with TK-10 it was > 100 µM (inactive); in the test with NCI-H460 it was 30.5 µM (inactive); in the test on RPMI-8226 it was 21.8 µM (inactive). For the same compound, the GI50 with SW-620 is > 100 µM (inactive); in the test on MOLT-4, 7.35 µM (inactive); in the test with SK-MEL-2 it was 94.6 µM (inactive).

In the case of `CNC(C)(C)Cc1ccc(Cl)cc1`, the GI50 in the test with CCRF-CEM, in the test on RXF 393, with KM12, in the test on SF-268, with K562 and in the test with A498 was > 100 µM (inactive) each time. Further, the GI50 in the test with SK-OV-3, in the test on SK-MEL-5, in the test with LXFL 529, with TK-10, in the test on NCI-H460 and in the test with RPMI-8226 was > 100 µM (inactive) in each case. The GI50 with SW-620, in the test on MOLT-4 and in the test with SK-MEL-2 was > 100 µM (inactive) in each case.

With `c1ccc2c(NCCCCCCNc3c4ccccc4nc4ccccc34)c3ccccc3nc2c1`, the GI50 is 0.0471 µM (active) in the test on CCRF-CEM; 0.682 µM (active) in the test on Hs-578T; 0.191 µM (active) in the test with RXF 393; 0.155 µM (active) in the test on MCF7; 0.215 µM (active) in the test on KM12; 0.56 µM (active) in the test with SF-268. For the same compound, the GI50 was 0.0649 µM (active) with K562; 1.25 µM (inactive) with A498; 1.01 µM (active) in the test on SK-OV-3; 1.4 µM (inactive) in the test on SK-MEL-5; 0.155 µM (active) in the test on LXFL 529; 1.34 µM (inactive) with TK-10. Besides, the GI50 with NCI-H460 was 0.0631 µM (active); in the test on RPMI-8226, < 0.0358 µM (active); in the test on SW-620 it was 0.0458 µM (active); in the test on MOLT-4, 0.0149 µM (active); in the test on DU-145, 0.632 µM (active); with PC-3 it was 0.445 µM (active). For the same compound, the GI50 in the test on SK-MEL-2 is 1.26 µM (inactive); with MDA-N, 0.288 µM (active).

`C[C@H](N)C(=O)N[C@@H]1[C@H]2C(=C(O)C[C@@H](O)[C@@H]2O)C(=O)O[C@]1(C)C(Cl)Cl` [BACTOBOLIN]: the GI50 was 0.125 µM (active) in the test with Hs-578T; 0.17 µM (active) with RXF 393; 0.146 µM (active) in the test on MCF7; 0.172 µM (active) with KM12; 0.184 µM (active) in the test on SF-268; 0.329 µM (active) in the test with A498. Also, the GI50 in the test with SK-OV-3 is 0.271 µM (active); in the test on SK-MEL-5 it was 0.129 µM (active); with LXFL 529, 0.108 µM (active); in the test on TK-10, 0.356 µM (active); in the test on NCI-H460, 0.111 µM (active); with SW-620, 0.145 µM (active). Besides, the GI50 in the test on DU-145 was 0.182 µM (active); in the test on PC-3, 0.232 µM (active); in the test with SK-MEL-2, 0.222 µM (active); in the test on MDA-N, 0.105 µM (active).
